Read-outs that look alike come from different tables or passages of the source.
Assays:
H1299 p53 Y220C = assay: Cell Proliferation Assay (CellTiter-Glo, CTG), H1299 p53 Y220C (NClH1299-inducible p53 Y220C); format: cell-based; conditions: Homo sapiens, NCI-H1299, 120 h, NClH1299-inducible p53 Y220C cells, 5 days, CellTiter-Glo
In short: (§1)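 NClH1299 lines stably transduced with Tet-inducible p53 Y220C or R273H, plus NUGC3, were treated with compound for 5 days at 250-500 cells/well. IC50 derived from CellTiter-Glo luminescent signal after 10 min room-temperature incubation.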

H1299 p53 R273H = assay: Cell Proliferation Assay (CellTiter-Glo, CTG), H1299 p53 R273H (NClH1299-inducible p53 R273H); format: cell-based; conditions: Homo sapiens, NCI-H1299, 120 h, NClH1299-inducible p53 R273H cells, 5 days, CellTiter-Glo
In short: as §1

[1] = molecular target: T1, p53 Y220C mutant protein (amino acid residues 94-293) (Homo sapiens, UniProt P04637, Y220C); assay: Surface Plasmon Resonance (SPR) assay, Kd_kinetic; format: binding; conditions: read-out: SPR P53 Y220C KD kinetic
T1 construct: p53 Y220C mutant protein (amino acid residues 94-293)
In short: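 Temperature held at 16 or 20 °C during Biacore 8K runs. Buffer: 50 mM Tris, pH 7.5, 100 mM NaCl, 1 mM DTT, 0.01% Brij35, 0.05% Tween-20, 1% DMSO.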

[2] = molecular target: T1, p53 Y220C mutant protein (amino acid residues 94-293); assay: Thermal Shift Assay (TSA), dTM; format: binding; conditions: p53 Y220C, read-out: TSA P53 Y220C dTM; for ΔTm at 10 µM: 10 uM compound; for ΔTm at 100 µM: 100 uM compound
In short: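 5 μM p53 Y220C (residues 94-293) incubated 3 h at 20 °C with 10 μM or 100 μM compound in 20 mM HEPES pH 7.4, 100 mM NaCl, 0.01% Pluronic F-127, 1% DMSO plus Sypro Orange. Melt from 30 to 50 °C at 0.03 °C/s; TM from Boltzmann two-state fit.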

NUGC3 p53 Y220C = assay: Cell Proliferation Assay (CellTiter-Glo, CTG), NUGC3 p53 Y220C; format: cell-based; conditions: Homo sapiens, NUGC-3, 120 h, NUGC3 cells, 5 days, CellTiter-Glo
In short: as §1

p53 Y220C = p53 Y220C (Homo sapiens, UniProt P04637, Y220C); assay: Luciferase Reporter Assay (Luc), p53 response element, NClH1299 cells with inducible p53 Y220C; format: cell-based; conditions: luciferase reporter, NClH1299 inducible p53 Y220C, 6 hour; for AC50: read-out: Luc P53 Y220C AC50
In short: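 H1299 cells induced with 0.5 ug/mL doxycycline for 24 hours, then exposed to compound for 6 hours. p53 response-element luciferase read by One-Glo luminescence after 5 min shaking at room temperature.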

Row | SMILES | IC50 (H1299 p53 Y220C) | IC50 (H1299 p53 R273H) | Kd ([1]; SPR, p53 Y220C) | ΔTm at 10 µM [2] | AC50 (p53 Y220C) | Emax (p53 Y220C) | ΔTm at 100 µM [2] | Kd [1] | IC50 (NUGC3 p53 Y220C)
1 | CNC(=O)c1ccc(C)c(NCC#Cc2cc3c(N[C@@H]4CCN(C)C[C@@H]4F)nccn3c2SC(F)(F)F)c1 [Example 294] | < 750 nM | ≥ 10000 nM | < 10 nM | ≥ 10 °C | < 750 nM | > 90% | – | – | < 750 nM
2 | CNC(=O)c1ccc(NCC#Cc2cc3c(N[C@@H]4CCNC[C@@H]4F)nccn3c2SC(F)(F)F)c(OC)c1 [Example 295] | < 750 nM | 8000 to 10000 nM | < 10 nM | ≥ 10 °C | < 750 nM | > 90% | – | – | < 750 nM
3 | CNC(=O)c1ccc(OC)c(NCC#Cc2nc3c(N[C@@H]4CCN(CCOC)C[C@@H]4F)cccn3c2SC(F)(F)F)c1 [Example 296] | < 750 nM | ≥ 10000 nM | < 10 nM | ≥ 10 °C | < 750 nM | 80 to 90% | – | – | < 750 nM
4 | CNC(=O)c1ccc(NCC#Cc2cc3c(N[C@@H]4CCN(C)C[C@@H]4F)nccn3c2SC(F)(F)F)cc1 [Example 297] | < 750 nM | ≥ 10000 nM | – | ≥ 10 °C | < 750 nM | > 90% | – | < 10 nM | < 750 nM
5 | CNC(=O)c1ccc(C#N)c(NCC#Cc2cc3c(N[C@@H]4CCN(C)C[C@@H]4F)nccn3c2SC(F)(F)F)c1 [Example 300] | < 750 nM | ≥ 10000 nM | < 10 nM | ≥ 10 °C | < 750 nM | > 90% | – | – | < 750 nM
6 | CNC(=O)c1cc(F)c(OC)c(NCC#Cc2nc3c(N[C@@H]4CCN(C)C[C@@H]4F)cccn3c2SC(F)(F)F)c1 [Example 303] | < 750 nM | ≥ 10000 nM | < 10 nM | ≥ 10 °C | < 750 nM | > 90% | – | – | < 750 nM
7 | CNC(=O)c1cc(F)c(OC)c(NCC#Cc2nc3c(N[C@@H]4CCNC[C@@H]4F)cccn3c2SC(F)(F)F)c1 [Example 304] | < 750 nM | < 5000 nM | < 10 nM | ≥ 10 °C | < 750 nM | > 90% | – | – | < 750 nM
8 | CCNC(=O)c1ccc(NCC#Cc2cc3c(N[C@@H]4CCN(C)C[C@@H]4F)nccn3c2SC(F)(F)F)c(OC)c1 [Example 306] | < 750 nM | 5000 to 8000 nM | < 10 nM | ≥ 10 °C | < 750 nM | > 90% | – | – | < 750 nM
9 | CNC(=O)c1ccc(OC)c(NCC#Cc2nc3c(N[C@@H]4CCNC[C@@H]4F)nccn3c2SC(F)(F)F)c1 [Example 307] | < 750 nM | ≥ 10000 nM | < 10 nM | ≥ 10 °C | < 750 nM | 80 to 90% | – | – | < 750 nM
10 | COc1cc2c[nH]nc2cc1NCC#Cc1nc2c(N[C@@H]3CCN(C)C[C@@H]3F)cccn2c1SC(F)(F)F [Example 308, N-[3-(8-{[(3S,4R)-3-fluoro-1-methylpiperidin-4-yl]amino}-3-[(trifluoromethyl)sulfanyl]imidazo[1,2-a]pyridin-2-yl)prop-2-yn-1-yl]-5-methoxy-2H-indazol-6-amine] | < 750 nM | < 5000 nM | < 10 nM | ≥ 10 °C | < 750 nM | 80 to 90% | ≥ 10 °C | – | < 750 nM
11 | CCNC(=O)c1ccc(OC)c(NCC#Cc2nc3c(N[C@@H]4CCN(C)C[C@@H]4F)nccn3c2SC(F)(F)F)c1 [Example 309] | < 750 nM | < 5000 nM | < 10 nM | ≥ 10 °C | < 750 nM | 70 to 80% | – | – | < 750 nM
12 | CNC(=O)c1ccc(Cl)c(NCC#Cc2nc3c(N[C@@H]4CCN(C)C[C@@H]4F)cccn3c2SC(F)(F)F)c1 [Example 312] | < 750 nM | 5000 to 8000 nM | < 10 nM | ≥ 10 °C | < 750 nM | > 90% | – | – | < 750 nM

Second part, led by results:

Row | IC50 (H1299 p53 Y220C) | IC50 (H1299 p53 R273H) | Kd ([1]; SPR, p53 Y220C) | ΔTm at 10 µM [2] | AC50 (p53 Y220C) | Emax (p53 Y220C) | ΔTm at 100 µM [2] | Kd [1] | SMILES | IC50 (NUGC3 p53 Y220C)
13 | < 750 nM | ≥ 10000 nM | < 10 nM | ≥ 10 °C | < 750 nM | 80 to 90% | – | – | CNC(=O)c1ccc(NCC#Cc2nc3c(N[C@@H]4C[C@@H]5COC[C@H]([C@@H]4F)N5C)cccn3c2SC(F)(F)F)c(OC)c1 [Example 283] | < 750 nM
14 | < 750 nM | < 5000 nM | < 10 nM | ≥ 10 °C | < 750 nM | 80 to 90% | ≥ 10 °C | – | CNC(=O)c1ccc(OC)c(NCC#Cc2nn3c(N[C@@H]4C[C@H]5CC[C@@H]([C@@H]4F)N5C)cccc3c2SC(F)(F)F)c1 [Example 284] | < 750 nM
15 | < 750 nM | 5000 to 8000 nM | < 10 nM | ≥ 10 °C | < 750 nM | 80 to 90% | ≥ 10 °C | – | CCNC(=O)c1ccc(OC)c(NCC#Cc2nn3c(N[C@@H]4CCN(C)C[C@@H]4F)cccc3c2SC(F)(F)F)c1 [Example 285] | < 750 nM
16 | < 750 nM | < 5000 nM | < 10 nM | ≥ 10 °C | < 750 nM | 80 to 90% | – | – | CNC(=O)c1ccc(OC)c(NCC#Cc2nn3c(N[C@H]4C[C@@H]5CC[C@@H](N5)[C@H]4F)cccc3c2SC(F)(F)F)c1 [Example 287] | < 750 nM
17 | < 750 nM | < 5000 nM | < 10 nM | ≥ 10 °C | < 750 nM | 80 to 90% | – | – | CNC(=O)c1ccc(OC)c(NCC#Cc2nn3c(N[C@H]4C[C@@H]5CC[C@H]([C@H]4F)N5C)cccc3c2SC(F)(F)F)c1 [Example 288] | < 750 nM
18 | < 750 nM | 5000 to 8000 nM | < 10 nM | ≥ 10 °C | < 750 nM | > 90% | ≥ 10 °C | – | CNC(=O)c1ccc(OC)c(NCC#Cc2cc3c(N[C@@H]4CCNC[C@@H]4F)nccn3c2SC(F)(F)F)c1 [Example 289] | < 750 nM
19 | < 750 nM | ≥ 10000 nM | < 10 nM | ≥ 10 °C | < 750 nM | > 90% | – | – | CCNC(=O)c1ccc(OC)c(NCC#Cc2cc3c(N[C@@H]4CCN(C)C[C@@H]4F)nccn3c2SC(F)(F)F)c1 [Example 290] | < 750 nM
20 | < 750 nM | ≥ 10000 nM | < 10 nM | ≥ 10 °C | < 750 nM | > 90% | ≥ 10 °C | – | CCNC(=O)c1cnc(OC)c(NCC#Cc2cc3c(N[C@@H]4CCN(C)C[C@@H]4F)nccn3c2SC(F)(F)F)c1 [Example 291] | < 750 nM
21 | < 750 nM | ≥ 10000 nM | < 10 nM | ≥ 10 °C | < 750 nM | > 90% | – | – | CNC(=O)c1cnc(OC)c(NCC#Cc2cc3c(N[C@@H]4CCNC[C@@H]4F)nccn3c2SC(F)(F)F)c1 [Example 292] | < 750 nM
22 | < 750 nM | ≥ 10000 nM | < 10 nM | ≥ 10 °C | < 750 nM | 80 to 90% | – | – | CCNC(=O)c1cnc(OC)c(NCC#Cc2nc3c(N[C@@H]4CCN(C)C[C@@H]4F)cccn3c2SC(F)(F)F)c1 [Example 293] | < 750 nM
